# Source: paper PMC12583704 (Signal Transduction and Targeted Therapy, 2025)
# Assay: Phase 1 study NCT03594422: adverse events graded by NCI CTCAE v4.03
# Type: in vivo, human
# Method: Part 1 was a dose-escalation study to determine the recommended phase 2 dose (RP2D) in solid tumors. […] The initial design was a 3 + 3 dose escalation from 20 mg, but the protocol was amended to randomly enroll and assign patients to starting doses of 30, 40, and 50 mg on the basis of safety data acquired in the CML trial.[20] […] An interactive web response system was used for randomization. Part 2 was a nonrandomized study focusing on patients with SDH-deficient GISTs. […] On the basis of preliminary data from adult patients, adolescent patients with advanced wild-type GISTs were also included in Part 2. The dosage for adolescents was adjusted according to their body weights.
# AEs were evaluated at each follow-up visit: on Days 1, 8, 15, and 22 during Cycles 1 and 2; and on Days 1 and 15 in Cycle 3 and all subsequent cycles, up to 30 days after the final dose. All AEs were graded according to the National Cancer Institute Common Terminology Criteria for Adverse Events v4.03. Clinical laboratory investigations for routine blood examinations and serum chemistry parameters were performed during every cycle (on Day 1), during Cycles 1 and 2 (on Days 8, 15, and 22), and 30 days after the last dose of treatment. Urinalysis, coagulation, cardiac troponin I/T, lipase, amylase, and electrocardiographic evaluations were conducted at baseline; during Cycles 1 and 2 (on Days 1 and 15); during Cycles 3, 5, 7, and 9; every three cycles after Cycle 9 (on Day 1); and 14 days after the last dose of treatment. All patients underwent tumor imaging for response assessment via computed tomography or magnetic resonance imaging at screening and every two cycles (8 weeks) until progression or discontinuation. Target and nontarget lesions were assessed per the Response Evaluation Criteria in Solid Tumors version 1.1 (RECIST v1.1).
compound,measurement,setting,value
"Cc1ccc(C(=O)Nc2ccc(CN3CCN(C)CC3)c(C(F)(F)F)c2)cc1C#Cc1cnc2[nH]ncc2c1 [Olverembatinib, 3-[(1H-pyrazolo[3,4-b]pyridin-5-yl)ethynyl]-4-methyl-N-{4-[(4-methylpiperazin-1-yl)methyl]-3-(trifluoromethyl)phenyl]benzamide]",TEAE: Constipation,"40 mg (n = 32), Grade 3-5",0 n (%)
same,TEAE: Fatigue,"40 mg (n = 32), Grade 3-5",1 (3.1) n (%)
same,TEAE: Hyperuricemia,"40 mg (n = 32), Grade 3-5",0 n (%)
same,TEAE: Hypoalbuminemia,"40 mg (n = 32), Grade 3-5",0 n (%)
same,TEAE: Leukocyte count increased,"40 mg (n = 32), Grade 3-5",0 n (%)
same,TEAE: Melanocytic nevus,"40 mg (n = 32), Grade 3-5",0 n (%)
same,TEAE: Neutrophil count increased,"40 mg (n = 32), Grade 3-5",0 n (%)
same,TEAE: Pyrexia,"40 mg (n = 32), Grade 3-5",0 n (%)
same,TEAEs,"40 mg (n = 32), Grade 3-5",12 (37.5) n (%)
same,TRAE: ALT increased,"40 mg (n = 32), Grade 3-5",0 n (%)
same,TRAE: AST increased,"40 mg (n = 32), Grade 3-5",0 n (%)
same,TRAE: Anemia,"40 mg (n = 32), Grade 3-5",0 n (%)
same,TRAE: Blood creatinine increased,"40 mg (n = 32), Grade 3-5",0 n (%)
same,TRAE: Constipation,"40 mg (n = 32), Grade 3-5",0 n (%)
same,TRAE: Fatigue,"40 mg (n = 32), Grade 3-5",1 (3.1) n (%)
same,TRAE: Hypoalbuminemia,"40 mg (n = 32), Grade 3-5",0 n (%)
same,TRAE: Leukocyte count increased,"40 mg (n = 32), Grade 3-5",0 n (%)
same,TRAE: Melanocytic nevus,"40 mg (n = 32), Grade 3-5",0 n (%)
same,TRAE: Neutrophil count increased,"40 mg (n = 32), Grade 3-5",0 n (%)
same,TRAE: Platelet count increased,"40 mg (n = 32), Grade 3-5",0 n (%)
same,TRAE: Pyrexia,"40 mg (n = 32), Grade 3-5",0 n (%)
same,TEAE: Abdominal pain,"50 mg (n = 16), Any grade",3 (18.8) n (%)
same,TEAE: Alanine aminotransferase increased,"50 mg (n = 16), Any grade",6 (37.5) n (%)
same,TEAE: Anemia,"50 mg (n = 16), Any grade",8 (50.0) n (%)
same,TEAE: Aspartate aminotransferase increased,"50 mg (n = 16), Any grade",10 (62.5) n (%)
same,TEAE: C-reactive protein increased,"50 mg (n = 16), Any grade",4 (25.0) n (%)
same,TEAE: Constipation,"50 mg (n = 16), Any grade",7 (43.8) n (%)
same,TEAE: Fatigue,"50 mg (n = 16), Any grade",5 (31.3) n (%)
same,TEAE: Hyperuricemia,"50 mg (n = 16), Any grade",5 (31.3) n (%)
same,TEAE: Hypoalbuminemia,"50 mg (n = 16), Any grade",5 (31.3) n (%)
same,TEAE: Leukocyte count increased,"50 mg (n = 16), Any grade",8 (50.0) n (%)
same,TEAE: Melanocytic nevus,"50 mg (n = 16), Any grade",4 (25.0) n (%)
same,TEAE: Neutrophil count increased,"50 mg (n = 16), Any grade",6 (37.5) n (%)
same,TEAE: Pyrexia,"50 mg (n = 16), Any grade",6 (37.5) n (%)
same,TEAEs,"50 mg (n = 16), Any grade",16 (100.0) n (%)
same,TRAE: ALT increased,"50 mg (n = 16), Any grade",5 (31.3) n (%)
same,TRAE: AST increased,"50 mg (n = 16), Any grade",6 (37.5) n (%)
same,TRAE: Anemia,"50 mg (n = 16), Any grade",4 (25.0) n (%)
same,TRAE: Blood creatinine increased,"50 mg (n = 16), Any grade",1 (6.3) n (%)
same,TRAE: Constipation,"50 mg (n = 16), Any grade",5 (31.3) n (%)
same,TRAE: Fatigue,"50 mg (n = 16), Any grade",5 (31.3) n (%)
same,TRAE: Hypoalbuminemia,"50 mg (n = 16), Any grade",3 (18.8) n (%)
same,TRAE: Leukocyte count increased,"50 mg (n = 16), Any grade",8 (50.0) n (%)
same,TRAE: Melanocytic nevus,"50 mg (n = 16), Any grade",4 (25.0) n (%)
same,TRAE: Neutrophil count increased,"50 mg (n = 16), Any grade",6 (37.5) n (%)
same,TRAE: Platelet count increased,"50 mg (n = 16), Any grade",2 (12.5) n (%)
same,TRAE: Pyrexia,"50 mg (n = 16), Any grade",4 (25.0) n (%)
same,TEAE: Abdominal pain,"50 mg (n = 16), Grade 3-5",0 n (%)
same,TEAE: Alanine aminotransferase increased,"50 mg (n = 16), Grade 3-5",2 (12.5) n (%)
same,TEAE: Anemia,"50 mg (n = 16), Grade 3-5",1 (6.3) n (%)
same,TEAE: Aspartate aminotransferase increased,"50 mg (n = 16), Grade 3-5",2 (12.5) n (%)
same,TEAE: C-reactive protein increased,"50 mg (n = 16), Grade 3-5",0 n (%)
same,TEAE: Constipation,"50 mg (n = 16), Grade 3-5",0 n (%)
same,TEAE: Fatigue,"50 mg (n = 16), Grade 3-5",0 n (%)
same,TEAE: Hyperuricemia,"50 mg (n = 16), Grade 3-5",0 n (%)
same,TEAE: Hypoalbuminemia,"50 mg (n = 16), Grade 3-5",0 n (%)
same,TEAE: Leukocyte count increased,"50 mg (n = 16), Grade 3-5",0 n (%)
same,TEAE: Melanocytic nevus,"50 mg (n = 16), Grade 3-5",0 n (%)
same,TEAE: Neutrophil count increased,"50 mg (n = 16), Grade 3-5",0 n (%)
same,TEAE: Pyrexia,"50 mg (n = 16), Grade 3-5",0 n (%)
same,TEAEs,"50 mg (n = 16), Grade 3-5",9 (56.3) n (%)
same,TRAE: ALT increased,"50 mg (n = 16), Grade 3-5",1 (6.3) n (%)
same,TRAE: AST increased,"50 mg (n = 16), Grade 3-5",1 (6.3) n (%)
same,TRAE: Anemia,"50 mg (n = 16), Grade 3-5",0 n (%)
same,TRAE: Blood creatinine increased,"50 mg (n = 16), Grade 3-5",0 n (%)
same,TRAE: Constipation,"50 mg (n = 16), Grade 3-5",0 n (%)
same,TRAE: Fatigue,"50 mg (n = 16), Grade 3-5",0 n (%)
